Assay results from PMC6264777, “New Catechol Derivatives of Safrole and Their Antiproliferative Activity towards Breast Cancer Cells” (Molecules, 2011).
Like-named read-outs stand apart in the source and are kept apart here.

Key:
[1] = system: MCF-7 cells; assay: Sulforhodamine B in vitro growth inhibition assay, MCF-7; format: cell-based, human; details: read-out: IC50 (μM) MCF-7
Method: (§1) IC50 values of compounds 3-11, safrole, catechol 2 and the reference compound daunorubicin are summarized in Table 1 as the micromolar concentration that produces 50% cell growth inhibition after 72 hours of drug exposure.
(§2) The experimental cell cultures were obtained from American Type Culture Collection (Rockville, MD, USA). MCF-7, MDA-MB-231 cells were grown in DMEM-F12 medium containing 10% FCS, 100 U/mL penicillin, 100 µg/mL streptomycin and 1 mM glutamine. Cells are seeded into 96 well microtiter plates in 100 µL at plating density of 3 × 10^3 cells/well. After 24 h incubation at 37 °C (under a humidified 5% carbon dioxide to allow cell attachment) the cells were treated with different concentrations of drugs (safrole and derivatives) and incubated for 72 h under the same conditions. Stock solution of compounds was prepared in ethanol and the final concentration of this solvent was kept constant at 0.1%. Control cultures received 0.1% ethanol alone.
(§3) The sulforhodamine B assay according to the method of Skehan et al. was used with some modifications. Briefly, the cells were set up 3 × 10^3 cells per well of a 96-well, flat-bottomed 200 μL microplate. Cells were incubated at 37 °C in a humidified 5% CO2/95% air mixture and treated with the compounds at different concentrations for 72 hours. At the end of drug exposure, cells were fixed with 50% trichloroacetic acid at 4 °C (TCA final concentration 10%). After washing with destilled water, cells were stained with 0.1% sulforhodamine B (Sigma-Aldrich, St. Louis, MO, USA), dissolved in 1% acetic acid (50 µL/well) for 30 min, and subsequently washed with 1% acetic acid to remove unbound stain. Protein-bound stain was solubilized with 100 µL of 10 mM unbuffered Tris base. The cell density was determined using a […] plate reader (wavelength 540 nm). Values shown are the mean + SD three independent experiments in triplicate.

[2] = system: MDA-MB-231 cells; assay: Sulforhodamine B in vitro growth inhibition assay, MDA-MB-231; format: cell-based, human; details: read-out: IC50 (μM) MDA-MB-231
Method: as §1, §2, §3

[3] = system: dermal human fibroblast cells (DHF); assay: cells; format: cell-based; details: for IC50: read-out: IC50 DHF
[4] = system: various human cell types; details: cited from earlier work
[5] = 50% cell growth inhibition after 72 hours of drug exposure, SRB, mean ± SD, three independent experiments in triplicate
[6] = Homo sapiens, MCF7, 50% cell growth inhibition after 72 hours of drug exposure, SRB, mean ± SD, three independent experiments in triplicate
[7] = Homo sapiens, MDA-MB-231, 50% cell growth inhibition after 72 hours of drug exposure, SRB, mean ± SD, three independent experiments in triplicate
[8] = Homo sapiens, Fibroblast, 50% cell growth inhibition after 72 hours of drug exposure, SRB, non-tumoral cells

Row | Molecule | IC50 [1, 6] [µM] | IC50 [2, 7] [µM] | IC50 [3, 8] [µM] | further results
1 | 4-allyl-1,2-phenylene diacetate [Compound 7] |  |  |  | IC50 [1, 5]: > 100 µM; IC50 [2, 5]: 41.7 ± 7.4 µM; IC50 ([3]; 50% cell growth inhibition after 72 hours of drug exposure, SRB, non-tumoral cells): > 100 µM
2 | C=CCc1cc(O)c(O)cc1[N+](=O)[O-] [Compound 2, 4-allyl-5-nitrobenzene-1,2-diol] | 55 ± 7.11 | 37.5 ± 2.65 | > 100 | 
3 | C=CCc1ccc(O)c(O)c1 [Compound 3, 4-allylbenzene-1,2-diol] | 98.4 ± 11.6 | 40.2 ± 6.9 | > 100 | toxicity towards dermal human fibroblast (DHF cells) [3]: without toxicity
4 | C=CCc1ccc(OC(C)=O)c(OC(C)=O)c1 [Compound 4, 4-allyl-1,2-phenylene diacetate] | > 100 | 54.7 ± 6.6 | > 100 | 
5 | OCCCc1ccc(O)c(O)c1 [Compound 5, 4-(3-hydroxypropyl)benzene-1,2-diol] | > 100 | 54.3 ± 4.1 | > 100 | 
6 | CC(=O)OCCCc1ccc(OC(C)=O)c(OC(C)=O)c1 [Compound 6, 4-[3-(acetyloxy)propyl]-1,2-phenylene diacetate] | 97.8 ± 12.4 | 5.9 ± 0.8 | > 100 | 
7 | O=[N+]([O-])c1cc(O)c(O)cc1CCCO [Compound 8, 4-(3-hydroxypropyl)-5-nitrobenzene-1,2-diol] | 78.2 ± 8.9 | 57.3 ± 4.1 | > 100 | 
8 | CC(O)Cc1cc(O)c(O)cc1[N+](=O)[O-] (centres unmarked) [Compound 9, 4-(2-hydroxypropyl)-5-nitrobenzene-1,2-diol] | > 100 | > 100 | > 100 | 
9 | CC(=O)OCCCc1cc(OC(C)=O)c(OC(C)=O)cc1[N+](=O)[O-] [Compound 10, 4-[3-(acetyloxy)propyl]-5-nitro-1,2-phenylene diacetate] | 51.3 ± 2.1 | 33.8 ± 4.9 | > 100 | 
10 | CC(=O)OCCCc1cc(O)c(O)cc1[N+](=O)[O-] [Compound 11, 3-(4,5-dihydroxy-2-nitrophenyl)propyl acetate] | 63.8 ± 5.5 | 27.1 ± 4.4 | > 100 | 
11 | COc1cccc2c1C(=O)c1c(O)c3c(c(O)c1C2=O)C[C@@](O)(C(C)=O)C[C@@H]3O[C@H]1C[C@H](N)[C@H](O)[C@H](C)O1 [Daunorubicin, reference compound] | 0.19 ± 0.01 | 0.38 ± 0.06 | 14.3 ± 1.85 | 
12 | C=CCc1ccc2c(c1)OCO2 [safrole, Safrole] |  |  |  | IC50 ([1]; Homo sapiens, MCF7, 72 h): > 100 µM; IC50 ([2]; Homo sapiens, MDA-MB-231, 72 h): > 100 µM; IC50 ([3]; Homo sapiens, Fibroblast, 72 h): > 100 µM; concentrations at which safrole becomes cytotoxic [4]: 5 to 10 mM
